Experimental data taken from patent publication US11427783B2, “Perfuming compositions” (Firmenich SA, priority 2016, dated 2022).
Where a name gives a salt, the structure may show the parent alone.

Assay: Volatility of perfuming compounds in air
Assay type: physicochemical
[1] = Table 8, perfuming compounds having a sweet note
[2] = Table 9, perfuming compounds having a gourmand note
[3] = Table 6, perfuming compounds having a fruity note
[4] = Table 10, perfuming compounds having a woody note
[5] = Table 5, perfuming compounds having a green note

O=c1ccc2ccccc2o1 [2-CHROMENONE]
Volatility (μg/l air) [1]: 0.51 μg/l air | Volatility (μg/l air) [2]: 0.51 μg/l air

CC1=CC[C@H](C(C)CC2CCCC2=O)CC1 (some centres unmarked)
Volatility (μg/l air) [3]: 2.05 μg/l air | Volatility (μg/l air) [1]: 2.05 μg/l air | Volatility (μg/l air) [2]: 2.05 μg/l air

CC(=O)OCCC1=CCC2CC1C2(C)C (centres unmarked)
Volatility (μg/l air) [4]: 60.02 μg/l air

CCC(C)C1(C)COC(C2CCC(C)=CC2C)OC1 (centres unmarked)
Volatility (μg/l air) [4]: 3.82 μg/l air

COC(=O)Cc1ccccc1 [METHYL PHENYLACETATE]
Volatility (μg/l air) [1]: 555.30 μg/l air | Volatility (μg/l air) [2]: 555.30 μg/l air

CCCCCCCCCCO [1-DECANOL]
Volatility [5]: 31.90 μg/l air

CCCC(S)CCOC (racemic) [(+−)-1-METHOXY-3-HEXANETHIOL]
Volatility [5]: 2534.77 μg/l air

COC(=O)C1C(C)=CCCC1(C)C (racemic)
Volatility [5]: 2010.91 μg/l air

CCCCCC1CCCC1O (racemic) [(+−)-2-PENTYL-1-CYCLOPENTANOL]
Volatility (μg/l air) [1]: 97.79 μg/l air

CC(=O)/C(C)=C(/C)C(C)C(C)(C)C (racemic)
Volatility (μg/l air) [4]: 659.22 μg/l air

CCOC(=O)C1OC1(C)c1ccccc1 (centres unmarked) [ETHYL 2,3-EPDXY-3-PHENYLBUTANOATE]
Volatility (μg/l air) [3]: 12.97 μg/l air

3,7-DIMETHYL-2,6-NONADIENENITRILE (A) + 3,7-DIMETHYL-3,6-NONADIENENITRILE (B)
Volatility [5]: 78.89 μg/l air

CCCC(O)CCC1C(C)CCC(C)C1(C)C (racemic)
Volatility (μg/l air) [4]: 3.42 μg/l air

CCC(O)COC1CCCCC1C(C)(C)C (racemic)
Volatility (μg/l air) [4]: 205.05 μg/l air

CCOCOC1CCCCCCCCCCC1 [(ETHOXYMETHOXY)CYCLODODECANE]
Volatility (μg/l air) [4]: 6.63 μg/l air

CC(=O)/C(C)=C/C1C(C)=CCCC1(C)C (racemic)
Volatility (μg/l air) [3]: 36.33 μg/l air | Volatility (μg/l air) [4]: 106.28 μg/l air

CCC(=O)OC/C=C/c1ccccc1 [(E)-3-PHENYL-2-PROPENYL PROPANOATE]
Volatility (μg/l air) [3]: 8.14 μg/l air

CC(C)C(=O)OCCc1ccccc1 [2-PHENYLETHYL ISOBUTYRATE]
Volatility (μg/l air) [3]: 67.38 μg/l air | Volatility (μg/l air) [1]: 67.38 μg/l air | Volatility (μg/l air) [2]: 67.38 μg/l air

CC1CCCC2(C)CCCCC12O (racemic)
Volatility [5]: 330.48 μg/l air

C=C1CCCC(C)(C)C1C(=O)/C=C/C (racemic)
Volatility (μg/l air) [1]: 152.99 μg/l air | Volatility (μg/l air) [2]: 152.99 μg/l air

CCCC(=O)OC(C)(C)Cc1ccccc1 [1,1-DIMETHYL-2-PHENYLETHYL BUTANOATE]
Volatility (μg/l air) [3]: 34.65 μg/l air | Volatility (μg/l air) [1]: 34.65 μg/l air | Volatility (μg/l air) [2]: 34.65 μg/l air

O=C/C=C/c1ccccc1 [(E)-3-PHENYL-2-PROPENAL]
Volatility (μg/l air) [4]: 70.14 μg/l air

CCCCCCO [1-hexanol]
Volatility [5]: 2070.00 μg/l air

CC(C)(C)C(=O)OCCc1ccccc1 [2-PHENYLETHYL PIVALATE]
Volatility (μg/l air) [3]: 71.44 μg/l air | Volatility (μg/l air) [1]: 71.44 μg/l air | Volatility (μg/l air) [2]: 71.44 μg/l air

CC1OCCC12NCCS2 (racemic)
Volatility (μg/l air) [1]: 52.47 μg/l air

CCC(=CCC1CC=C(C)C1(C)C)CO (racemic)
Volatility (μg/l air) [4]: 3.69 μg/l air

Cc1ccc(OCC=O)cc1
Volatility [5]: 89.41 μg/l air

CCCCC/C=C\CCC=O [(Z)-4-DECENAL]
Volatility [5]: 629.54 μg/l air

CC(=O)c1ccccc1 [1-phenylethanone]
Volatility (μg/l air) [1]: 1728.98 μg/l air

CCC(=O)OCC(C)(C)OC(C)C1CCCC(C)(C)C1 (single isomer, unassigned; (+))
Volatility (μg/l air) [3]: 4.39 μg/l air

CCCC=C1OC(=O)c2ccccc21 [3-BUTYLIDENE-1-BENZO[C]FURANONE]
Volatility (μg/l air) [1]: 14.37 μg/l air | Volatility (μg/l air) [2]: 14.37 μg/l air

CCC(C)C(=O)OCCc1ccccc1 (racemic) [(+−)-2-PHENYLETHYL 2-METHYLBUTANOATE]
Volatility (μg/l air) [3]: 37.73 μg/l air

COC(OC)C(C)c1ccccc1 (centres unmarked) [1,1-DIMETHOXY-2-PHENYLPROPANE]
Volatility [5]: 376.94 μg/l air

CCC/C=C/CO [(E)-2-HEXEN-1-OL]
Volatility [5]: 3752.17 μg/l air

CCCC1CCC(=O)O1 (racemic) [(+−)-4-HEPTANOLIDE]
Volatility (μg/l air) [1]: 295.34 μg/l air

CC(CC=O)CC(C)(C)C (racemic) [(+−)-3,5,5-TRIMETHYLHEXANAL]
Volatility [5]: 12045.92 μg/l air

C=C1C2CCC(C)(OCC)C1CCC2(C)C (racemic)
Volatility (μg/l air) [4]: 135.00 μg/l air

CC/C=C\CCO [(Z)-3-HEXEN-1-OL]
Volatility [5]: 5986.62 μg/l air

CCCCCCC1CCC(=O)O1 (racemic) [(+−)-4-DECANOLIDE]
Volatility (μg/l air) [3]: 10.49 μg/l air | Volatility (μg/l air) [1]: 10.49 μg/l air | Volatility (μg/l air) [2]: 10.49 μg/l air

C[C@H]1[C@@H]2C[C@H](C[C@@]13C=CC(=O)CC3)C2(C)C
Volatility (μg/l air) [3]: 4.14 μg/l air | Volatility (μg/l air) [4]: 4.14 μg/l air

COc1ccc(C=O)cc1 [4-METHOXYBENZALDEHYDE]
Volatility [5]: 98.47 μg/l air

COC(C)(C)CCCC(C)C(C)O (racemic)
Volatility (μg/l air) [4]: 35.54 μg/l air

CC(=O)OCCC1CCCCC1 [2-CYCLOHEXYLETHYL ACETATE]
Volatility (μg/l air) [1]: 489.45 μg/l air | Volatility (μg/l air) [2]: 489.45 μg/l air

O=COCc1ccccc1 [BENZYL FORMATE]
Volatility [5]: 1339.53 μg/l air

c1ccc(CCCc2ccccn2)cc1 [2-(3-PHENYLPROPYL)PYRIDINE]
Volatility [5]: 3.83 μg/l air

C=C(C)[C@@H]1CC=C(CO)CC1
Volatility [5]: 33.78 μg/l air

CCOC(=O)/C=C/c1ccccc1 [ETHYL (E)-3-PHENYL-2-PROPENOATE]
Volatility (μg/l air) [3]: 20.55 μg/l air

COc1nccnc1CCCC(C)C
Volatility [5]: 195.24 μg/l air

COC(OC)C(C)(C)CC=C(C)C
Volatility (μg/l air) [4]: 1311.32 μg/l air

OCCc1ccccc1 [2-PHENYLETHANOL]
Volatility (μg/l air) [1]: 159.75 μg/l air | Volatility (μg/l air) [2]: 159.75 μg/l air

Cc1occc(=O)c1O [3-HYDROXY-2-METHYL-4(4H)-PYRANONE]
Volatility (μg/l air) [3]: 92.42 μg/l air | Volatility (μg/l air) [1]: 92.42 μg/l air

COc1cccc(OC)c1O [2,6-DIMETHOXYPHENOL]
Volatility (μg/l air) [1]: 19.23 μg/l air | Volatility (μg/l air) [2]: 19.23 μg/l air

COC(=O)/C=C/c1ccccc1 [METHYL (E)-3-PHENYL-2-PROPENOATE]
Volatility (μg/l air) [3]: 61.65 μg/l air

CC(C)=CCC/C(C)=C\CO
Volatility (Table 7, citrus note): 86.02 μg/l air
